Data published in the supplement of paper PMC11061612.

Experiments:
Capivasertib = compound: C1CN(CCC1(C(=O)N[C@@H](CCO)C2=CC=C(C=C2)Cl)N)C3=NC=NC4=C3C=CN4 [Capivasertib]; conditions: max 10 µM
Procedure, shortened: (§1)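 Cancer cell lines were plated in 1536-well plates in 7.5 μl of DMEM/F12 or RPMI with 10% FBS and kept 24 hours at 37°C and 5% CO2 before 72 hours of dosing, with final DMSO typically 0.2%. CellTiter-Glo 2.0 luminescence measured viability, scaled between blank-well and DMSO-well means. Dose responses were fitted to a two-parameter logistic curve with a non-linear mixed effects model. This fit gives the single-agent IC50.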

AZD1775 = compound: C=CCn1c(=O)c2cnc(Nc3ccc(N4CCN(C)CC4)cc3)nc2n1-c1cccc(C(C)(C)O)n1 [AZD1775]; conditions: max 3 µM
Procedure, shortened: as §1

Trametinib = compound: CC(=O)Nc1cccc(-n2c(=O)n(C3CC3)c(=O)c3c(Nc4ccc(I)cc4F)n(C)c(=O)c(C)c32)c1 [Trametinib]; conditions: max 1 µM
Procedure, shortened: as §1

Palbociclib = compound: CC(=O)c1c(C)c2cnc(Nc3ccc(N4CCNCC4)cn3)nc2n(C2CCCC2)c1=O [Palbociclib]; conditions: max 10 µM
Procedure, shortened: as §1

AZD1390 = compound: CC(C)n1c(=O)n(C)c2cnc3cc(F)c(-c4ccc(OCCCN5CCCCC5)nc4)cc3c21 [AZD1390]; conditions: max 0.3 µM
Procedure, shortened: as §1

Venetoclax = compound: CC1(C)CCC(CN2CCN(c3ccc(C(=O)NS(=O)(=O)c4ccc(NCC5CCOCC5)c([N+](=O)[O-])c4)c(Oc4cnc5[nH]ccc5c4)c3)CC2)=C(c2ccc(Cl)cc2)C1 [Venetoclax]; conditions: max 1 µM
Procedure, shortened: as §1

Dasatinib = compound: CC1=C(C(=CC=C1)Cl)NC(=O)C2=CN=C(S2)NC3=CC(=NC(=N3)C)N4CCN(CC4)CCO [Dasatinib]; conditions: max 2 µM
Procedure, shortened: as §1

SG3199 = compound: CC1=CN2[C@@H](C1)C=NC3=CC(=C(C=C3C2=O)OC)OCCCCCOC4=C(C=C5C(=C4)N=C[C@@H]6CC(=CN6C5=O)C)OC [SG3199]; conditions: max 0.001 µM
Procedure, shortened: as §1

AZD2811 = compound: CCN(CCO)CCCOc1ccc2c(Nc3cc(CC(=O)Nc4cccc(F)c4)[nH]n3)ncnc2c1 [AZD2811]; conditions: max 1 µM
Procedure, shortened: as §1

SN-38 = compound: CCc1c2c(nc3ccc(O)cc13)-c1cc3c(c(=O)n1C2)COC(=O)[C@]3(O)CC [SN-38]; conditions: max 0.3 µM
Procedure, shortened: as §1

AZD0156 = compound: CN(C)CCCOc1ccc(-c2ccc3ncc4c(c3c2)n(C2CCOCC2)c(=O)n4C)cn1 [AZD0156]; conditions: max 3 µM
Procedure, shortened: as §1

AZD4320 = compound: CN(CC[C@H](CSC1=CC=CC=C1)NC2=C(C=C(C=C2)S(=O)(=O)NC(=O)C3=CC=C(C=C3)N4CCC(CC4)[C@H](C5=CC=CC=C5C6=CC=C(C=C6)Cl)O)S(=O)(=O)C(F)(F)F)CCO [AZD4320]; conditions: max 1 µM
Procedure, shortened: as §1

Alisertib = compound: COc1cc(Nc2ncc3c(n2)-c2ccc(Cl)cc2C(c2c(F)cccc2OC)=NC3)ccc1C(=O)O [Alisertib]; conditions: max 10 µM
Procedure, shortened: as §1

Gefitinib = compound: COc1cc2ncnc(Nc3ccc(F)c(Cl)c3)c2cc1OCCCN1CCOCC1 [Gefitinib]; conditions: max 10 µM
Procedure, shortened: as §1

Prexasertib = compound: COc1cccc(OCCCN)c1-c1cc(Nc2cnc(C#N)cn2)n[nH]1 [Prexasertib]; conditions: max 1 µM
Procedure, shortened: as §1

Doxorubicin = compound: COc1cccc2c1C(=O)c1c(O)c3c(c(O)c1C2=O)C[C@@](O)(C(=O)CO)C[C@@H]3O[C@H]1C[C@H](N)[C@H](O)[C@H](C)O1 [Doxorubicin]; conditions: max 1 µM
Procedure, shortened: as §1

AZD5153 = compound: COc1nnc2ccc(N3CCC(c4ccc(OCCN5CCN(C)C(=O)[C@H]5C)cc4)CC3)nn12 [AZD5153]; conditions: max 1 µM
Procedure, shortened: as §1

Lapatinib = compound: CS(=O)(=O)CCNCc1ccc(-c2ccc3ncnc(Nc4ccc(OCc5cccc(F)c5)c(Cl)c4)c3c2)o1 [Lapatinib]; conditions: max 10 µM
Procedure, shortened: as §1

AZD8186 = compound: C[C@@H](Nc1cc(F)cc(F)c1)c1cc(C(=O)N(C)C)cc2c(=O)cc(N3CCOCC3)oc12 [AZD8186]; conditions: max 3 µM
Procedure, shortened: as §1

Crizotinib = compound: C[C@@H](Oc1cc(-c2cnn(C3CCNCC3)c2)cnc1N)c1c(Cl)ccc(F)c1Cl [Crizotinib]; conditions: max 10 µM
Procedure, shortened: as §1

Savolitinib = compound: C[C@@H](c1ccc2nccn2c1)n1nnc2ncc(-c3cnn(C)c3)nc21 [Savolitinib]; conditions: max 1 µM
Procedure, shortened: as §1

AZD6738 = compound: C[C@@H]1COCCN1C2=NC(=NC(=C2)C3(CC3)[S@](=N)(=O)C)C4=C5C=CNC5=NC=C4 [AZD6738]; conditions: max 10 µM
Procedure, shortened: as §1

AZD5991 = compound: Cc1c2c(nn1C)CSCc1cc(n(C)n1)CSc1cc(c3ccccc3c1)OCCCc1c(C(=O)O)n(C)c3c-2c(Cl)ccc13 [AZD5991]; conditions: max 1 µM
Procedure, shortened: as §1

AZD7648 = compound: Cc1cc2ncnn2cc1Nc1ncc2c(n1)n(C1CCOCC1)c(=O)n2C [AZD7648]; conditions: max 10 µM
Procedure, shortened: as §1

Taselisib = compound: Cc1nc(-c2cn3c(n2)-c2ccc(-c4cnn(C(C)(C)C(N)=O)c4)cc2OCC3)n(C(C)C)n1 [Taselisib]; conditions: max 10 µM
Procedure, shortened: as §1

Selumetinib = compound: Cn1cnc2c(F)c(Nc3ccc(Br)cc3Cl)c(C(=O)NOCCO)cc21 [Selumetinib]; conditions: max 10 µM
Procedure, shortened: as §1

Olaparib = compound: O=C(c1cc(Cc2n[nH]c(=O)c3ccccc23)ccc1F)N1CCN(C(=O)C2CC2)CC1 [Olaparib]; conditions: max 10 µM
Procedure, shortened: as §1

Cell Line	IC50, cell viability 72 h (Capivasertib) [nM]	IC50, cell viability 72 h (AZD1775) [nM]	IC50, cell viability 72 h (Trametinib) [nM]	IC50, cell viability 72 h (Palbociclib) [nM]	IC50, cell viability 72 h (AZD1390) [nM]	IC50, cell viability 72 h (Venetoclax) [nM]	IC50, cell viability 72 h (Dasatinib) [nM]	IC50, cell viability 72 h (SG3199) [nM]	IC50, cell viability 72 h (AZD2811) [nM]	IC50, cell viability 72 h (SN-38) [nM]	IC50, cell viability 72 h (AZD0156) [nM]	IC50, cell viability 72 h (AZD4320) [nM]	IC50, cell viability 72 h (Alisertib) [nM]	IC50, cell viability 72 h (Gefitinib) [nM]	IC50, cell viability 72 h (Prexasertib) [nM]	IC50, cell viability 72 h (Doxorubicin) [nM]	IC50, cell viability 72 h (AZD5153) [nM]	IC50, cell viability 72 h (Lapatinib) [nM]	IC50, cell viability 72 h (AZD8186) [nM]	IC50, cell viability 72 h (Crizotinib) [nM]	IC50, cell viability 72 h (Savolitinib) [nM]	IC50, cell viability 72 h (AZD6738) [nM]	IC50, cell viability 72 h (AZD5991) [nM]	IC50, cell viability 72 h (AZD7648) [nM]	IC50, cell viability 72 h (Taselisib) [nM]	IC50, cell viability 72 h (Selumetinib) [nM]	IC50, cell viability 72 h (Olaparib) [nM]
23132-87 (Gastric Carcinoma)	> 10000	375	> 1000	> 10000	> 300	> 1000	> 2000	> 1	> 1000	22.1	> 3000	> 1000	> 10000	> 10000	32.6	369	> 1000	> 10000	> 3000	> 10000	> 1000	4790	348	> 10000	> 10000	> 10000	> 10000
CAL-120 (Breast Carcinoma)	> 10000	1620	> 1000	> 10000	> 300	> 1000	> 2000	> 1	> 1000	296	> 3000	825	> 10000	> 10000	656	> 1000	> 1000	> 10000	> 3000	> 10000	> 1000	> 10000	> 1000	> 10000	> 10000	> 10000	> 10000
FADU (Head and Neck Carcinoma)	> 10000	> 3000	> 1000	> 10000	> 300	> 1000	> 2000	> 1	> 1000	6.3	> 3000	> 1000	> 10000	9020	79.1	312	> 1000	3160	> 3000	> 10000	> 1000	> 10000	407	> 10000	3320	> 10000	> 10000
GB-1 (Glioblastoma)	> 10000	> 3000	> 1000	> 10000	> 300	> 1000	> 2000	> 1	> 1000	32.7	> 3000	> 1000	> 10000	> 10000	951	> 1000	> 1000	> 10000	> 3000	> 10000	> 1000	> 10000	> 1000	> 10000	9750	> 10000	> 10000
GP5d (Colorectal Carcinoma)	1500	542	17.4	> 10000	> 300	> 1000	> 2000	> 1	764	73	> 3000	> 1000	5020	> 10000	23.3	552	168	> 10000	> 3000	6990	> 1000	3640	329	> 10000	254	340	> 10000
HCT-15 (Colorectal Carcinoma)	> 10000	544	> 1000	> 10000	> 300	> 1000	1730	> 1	> 1000	53.5	> 3000	> 1000	4210	> 10000	139	619	227	> 10000	> 3000	7410	> 1000	4000	> 1000	> 10000	3860	> 10000	> 10000
